The target in one data set is T1, rat mGluR5 receptor (Rattus norvegicus, UniProt P31424).
T1 construct: expressed in transfected cells
The data set is described as follows: mGluR5 assay on HEK-expressing rat mGluR5 (fluorescent cell based Ca2+ mobilization assay). The settings on record: for EC50: HEK-293 cells stably expressing rat mGluR5, no co-addition of glutamate, mean of at least three independent experiments in duplicate, read-out: Ca++ Flux (mean EC50). The protocol: Positive functional expression of HEK-293 cells stably expressing rat mGluR5 receptor was determined by measuring intracellular Ca^2+ changes using a Fluorometric Imaging Plate Reader (FLIPR, Molecular Devices, Sunnyvale, Calif.) in response to glutamate or selective known mGluR5 agonists and antagonists. Rat mGluR5 RT-PCR products in HEK-293 cells were sequenced and found 100% identical to rat mGluR5 Genbank reference sequence (NM_017012). HEK-293 cells expressing rmGluR5 were maintained in media containing DMEM, dialyzed Fetal Bovine Serum (10%), Glutamax™ (2 mM), Penicillin (100 units/ml), Streptomycin (100 μg/ml), Geneticin (100 μg/ml) and Hygromycin-B (40 μg/ml) at 37° C./5% CO2.
After one day of incubation, cells were washed with assay buffer containing: 142 mM NaCl, 6 mM KCl, 1 mM Mg2SO4, 1 mM CaCl2, 20 mM HEPES, 1 g/L glucose, 0.125 mM sulfinpyrazone, pH 7.4. After 60 min of loading with 4 uM Fluo-4 (TefLabs, Austin, Tex.), the cells were washed three times with 50 μl of PBS Buffer and resuspended in […] of assay Buffer. The plates were then transferred to a Fluorometric Imaging Plate Reader (FLIPR, Molecular Devices, Sunnyvale, Calif.) for the assessment of intracellular calcium flux. After monitoring the baseline fluorescence for 10 seconds, increasing concentrations of representative compound (from 0.01 to 60 μM) of the present invention diluted in Assay Buffer (15 μl of 4× dilutions) was added to the cell. The final DMSO concentration in the assay was 0.3%. In each experiment, fluorescence was then monitored as a function of time for 3 minutes and the data analyzed using Microsoft Excel and GraphPad Prism. Each data point was also measured two times.
Under these experimental conditions, this HEK-rat mGluR5 cell line is able to directly detect positive allosteric modulators without the need of co-addition of glutamate or mGluR5 agonist.
The concentration-response curves of representative compounds of the present invention were generated using the Prism GraphPad software (Graph Pad Inc, San Diego, USA). The curves were fitted to a four-parameter logistic equation:
(Y=Bottom+(Top-Bottom)/(1+10̂((Log EC50−X)*Hill Slope)
allowing determination of EC50 values.
The Table 1 below represents the mean EC50 obtained from at least three independent experiments of selected molecules performed in duplicate.
(In general: A change in cytosolic calcium serves as a functional read-out for many receptors and channels.)

A further data set addresses T2, mGluR5 (Rattus norvegicus, UniProt P31424).
T2 construct: positive allosteric modulators of mGluR5 receptors in native preparations; endogenous in cells; host or cells: primary cortical astrocytes from Sprague-Dawley rat embryos (E16-19)
The settings on record: Liu et al (2006), Zhang et al (2005); cited from earlier work.

T1 sequence (P31424 21-1171 isoform P31424-2 limits assumed): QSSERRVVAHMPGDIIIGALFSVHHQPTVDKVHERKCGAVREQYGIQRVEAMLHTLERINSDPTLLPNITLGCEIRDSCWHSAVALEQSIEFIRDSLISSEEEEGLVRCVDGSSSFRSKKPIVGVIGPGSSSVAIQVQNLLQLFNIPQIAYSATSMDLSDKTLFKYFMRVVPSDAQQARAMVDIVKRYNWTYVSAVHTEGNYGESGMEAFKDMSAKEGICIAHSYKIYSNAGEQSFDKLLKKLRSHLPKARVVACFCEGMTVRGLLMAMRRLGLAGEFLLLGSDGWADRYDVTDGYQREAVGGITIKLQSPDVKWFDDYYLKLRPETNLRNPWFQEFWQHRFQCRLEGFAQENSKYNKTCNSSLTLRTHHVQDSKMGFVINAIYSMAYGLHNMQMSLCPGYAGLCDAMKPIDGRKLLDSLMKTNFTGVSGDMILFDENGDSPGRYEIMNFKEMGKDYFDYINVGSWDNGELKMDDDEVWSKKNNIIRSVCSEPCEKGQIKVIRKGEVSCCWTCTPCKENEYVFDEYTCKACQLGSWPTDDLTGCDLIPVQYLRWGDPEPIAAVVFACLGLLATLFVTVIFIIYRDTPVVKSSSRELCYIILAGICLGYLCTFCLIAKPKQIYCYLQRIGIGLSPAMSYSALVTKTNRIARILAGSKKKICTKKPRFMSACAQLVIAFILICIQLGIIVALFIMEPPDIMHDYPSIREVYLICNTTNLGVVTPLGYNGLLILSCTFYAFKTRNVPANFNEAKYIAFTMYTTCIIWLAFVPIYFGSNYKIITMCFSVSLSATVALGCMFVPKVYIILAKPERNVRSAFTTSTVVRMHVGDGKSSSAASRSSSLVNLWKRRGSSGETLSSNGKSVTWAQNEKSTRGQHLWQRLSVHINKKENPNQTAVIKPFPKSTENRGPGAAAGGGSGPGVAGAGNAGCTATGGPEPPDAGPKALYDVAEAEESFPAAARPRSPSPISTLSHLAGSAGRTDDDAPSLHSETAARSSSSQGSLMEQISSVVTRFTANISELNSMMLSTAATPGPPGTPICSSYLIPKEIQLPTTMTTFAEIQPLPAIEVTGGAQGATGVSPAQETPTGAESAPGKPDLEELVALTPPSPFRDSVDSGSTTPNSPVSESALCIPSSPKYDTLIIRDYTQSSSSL
T2 sequence (P31424 21-1203): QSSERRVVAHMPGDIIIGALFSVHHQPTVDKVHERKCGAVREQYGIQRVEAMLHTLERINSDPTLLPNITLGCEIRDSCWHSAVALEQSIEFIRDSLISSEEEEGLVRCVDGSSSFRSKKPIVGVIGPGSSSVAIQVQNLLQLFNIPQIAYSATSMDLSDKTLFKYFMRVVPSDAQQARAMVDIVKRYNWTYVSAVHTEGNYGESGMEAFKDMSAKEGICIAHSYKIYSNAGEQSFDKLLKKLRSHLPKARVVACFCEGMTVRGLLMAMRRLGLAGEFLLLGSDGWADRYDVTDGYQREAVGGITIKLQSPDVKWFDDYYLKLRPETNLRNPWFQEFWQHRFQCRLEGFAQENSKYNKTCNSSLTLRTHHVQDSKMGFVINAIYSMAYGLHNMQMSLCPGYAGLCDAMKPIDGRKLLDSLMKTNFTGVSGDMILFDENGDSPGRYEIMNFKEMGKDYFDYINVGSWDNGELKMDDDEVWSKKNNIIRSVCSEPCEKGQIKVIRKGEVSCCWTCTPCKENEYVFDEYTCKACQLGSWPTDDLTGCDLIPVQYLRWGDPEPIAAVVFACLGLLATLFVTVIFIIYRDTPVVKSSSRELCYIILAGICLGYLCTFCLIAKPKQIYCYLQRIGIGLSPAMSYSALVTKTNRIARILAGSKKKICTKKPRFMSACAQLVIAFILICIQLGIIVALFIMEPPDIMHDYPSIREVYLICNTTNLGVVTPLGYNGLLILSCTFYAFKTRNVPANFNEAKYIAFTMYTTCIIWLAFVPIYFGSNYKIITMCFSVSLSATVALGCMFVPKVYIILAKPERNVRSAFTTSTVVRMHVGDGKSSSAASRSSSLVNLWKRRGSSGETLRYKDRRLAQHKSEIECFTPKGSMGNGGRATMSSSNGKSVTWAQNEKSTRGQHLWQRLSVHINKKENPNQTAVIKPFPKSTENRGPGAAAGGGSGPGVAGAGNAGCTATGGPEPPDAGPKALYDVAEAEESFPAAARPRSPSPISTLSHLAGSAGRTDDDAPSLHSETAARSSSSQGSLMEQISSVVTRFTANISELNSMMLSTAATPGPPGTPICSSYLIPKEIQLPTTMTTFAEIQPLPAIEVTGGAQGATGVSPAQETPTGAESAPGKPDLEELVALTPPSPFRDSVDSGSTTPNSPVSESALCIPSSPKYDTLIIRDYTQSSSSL

As a reminder, the melting point is the temperature of the solid-liquid transition. Broadly, the EC50 is the concentration at which the effect is half-maximal. As to `Cc1oncc1C(=O)N1CCC[C@H](c2noc(-c3ccc(F)cc3)n2)C1` [Example 39, {(S)-3-[5-(4-Fluoro-phenyl)-[1,2,4]oxadiazol-3-yl]-piperidin-1-yl}-(5-methyl-isoxazol-4-yl)-methanone], the melting point is 65 °C. Moreover, the half-maximal effective concentration (EC50) on rat mGluR5 receptor was under 1000 nM.

`O=C(c1ccc(F)nc1)N1CCCC(c2noc(-c3ccccn3)n2)C1` (centres unmarked) [Example 12, (6-Fluoro-pyridin-3-yl)-[3-(5-pyridin-2-yl-[1,2,4]oxadiazol-3-yl)-piperidin-1-yl]-methanone] showed a melting point of 124 to 126 °C. Besides, the concentration giving a half-maximal response (EC50) at rat mGluR5 receptor fell in the range of 1000 to 10000 nM.

Take `O=C(c1ccc(F)nc1)N1CCCC(c2noc(-c3ccccc3)n2)C1` (centres unmarked) [Example 29, (6-Fluoro-pyridin-3-yl)-[3-(5-phenyl-[1,2,4]oxadiazol-3-yl)-piperidin-1-yl]-methanone]: the melting point is 109 to 111 °C. For the same compound, the 50% effective concentration (EC50) at rat mGluR5 receptor is under 1000 nM.

In turn, `O=C(c1ccc(F)c(F)c1)N1CCCC(c2noc(-c3ccc(F)cc3)n2)C1` (centres unmarked) [Example 10, (3,4-Difluoro-phenyl)-{3-[5-(4-fluoro-phenyl)-[1,2,4]oxadiazol-3-yl]-piperidin-1-yl}-methanone] had a melting point of 149 to 152 °C. The EC50 at rat mGluR5 receptor was under 1000 nM.

`O=C(c1ccc(F)cc1F)N1CCCC(c2noc(-c3ccc(F)cc3F)n2)C1` (centres unmarked) [Example 19, (2,4-Difluoro-phenyl)-{3-[5-(2,4-difluoro-phenyl)-[1,2,4]oxadiazol-3-yl]-piperidin-1-yl}-methanone] registered a melting point of 101 °C. For the same compound, the 50% effective concentration (EC50) on rat mGluR5 receptor lay in the range of 1000 to 10000 nM.

For `N#Cc1cccc(C(=O)Nc2cc(-c3ccccc3)nn2-c2ccccc2)c1` [CDPPB, reference compound], at rat mGluR5 receptor (HEK-rat mGluR5 cell line, no added glutamate or agonist), the “activation of rat mGluR5 receptors without co-addition of glutamate” value is on record as “activating”. Moreover, the “activity in rat cortical astrocytes culture in the absence of added glutamate” value at mGluR5 was “inactive”.

As to `O=C(c1ccc(F)nc1)N1CCCC(c2noc(-c3ccc(F)cc3F)n2)C1` (centres unmarked) [Example 25, {3-[5-(2,4-Difluoro-phenyl)-[1,2,4]oxadiazol-3-yl]-piperidin-1-yl}-(6-fluoro-pyridin-3-yl)-methanone], the melting point came out at 87 °C. Also, the half-maximal effective concentration (EC50) at rat mGluR5 receptor lay in the range of 1000 to 10000 nM.

`O=C(c1ccnc(F)c1)N1CCC[C@H](c2noc(-c3ccc(F)cc3)n2)C1` [Example 40, {(S)-3-[5-(4-Fluoro-phenyl)-[1,2,4]oxadiazol-3-yl]-piperidin-1-yl}-(2-fluoro-pyridin-4-yl)-methanone] registered a melting point of 117 to 119 °C. In addition, on rat mGluR5 receptor, the EC50 was under 1000 nM.

Turning to `O=C(c1ccc(F)cn1)N1CCC[C@H](c2noc(-c3ccc(F)cc3)n2)C1` [Example 42, {(S)-3-[5-(4-Fluoro-phenyl)-[1,2,4]oxadiazol-3-yl]-piperidin-1-yl}-(5-fluoro-pyridin-2-yl)-methanone], the melting point is 93 to 95 °C. The EC50 on rat mGluR5 receptor is 1000 to 10000 nM.

`O=C(c1ccc(F)cc1F)N1CCCC(c2noc(-c3ccncc3)n2)C1` (centres unmarked) [Example 16, (2,4-Difluoro-phenyl)-[3-(5-pyridin-4-yl-[1,2,4]oxadiazol-3-yl)-piperidin-1-yl]-methanone] returned a melting point of 137 to 139 °C. At rat mGluR5 receptor, the EC50 lay in the range of 1000 to 10000 nM.

For the compound `O=C(c1ccc(F)c(F)c1)N1CCCC(c2noc(-c3ccccc3F)n2)C1` (centres unmarked) [Example 3, (3,4-Difluoro-phenyl)-{3-[5-(2-fluoro-phenyl)-[1,2,4]oxadiazol-3-yl]-piperidin-1-yl}-methanone], the melting point fell in the range of 80 to 83 °C. At rat mGluR5 receptor, the 50% effective concentration (EC50) was under 1000 nM.

The compound `Cc1oncc1C(=O)N1CCCC(c2noc(-c3ccc(F)cc3F)n2)C1` (centres unmarked) [Example 24, {3-[5-(2,4-Difluoro-phenyl)-[1,2,4]oxadiazol-3-yl]-piperidin-1-yl}-(5-methyl-isoxazol-4-yl)-methanone] gave a melting point of 79 °C. Besides, at rat mGluR5 receptor, the EC50 is 1000 to 10000 nM.

In the case of `O=C(c1ccc(F)cc1F)N1CCCC(c2noc(-c3ccccc3)n2)C1` (centres unmarked) [Example 33, (2,4-Difluoro-phenyl)-[3-(5-phenyl-[1,2,4]oxadiazol-3-yl)-piperidin-1-yl]-methanone], the melting point lay within 116 to 117 °C. Also, the EC50 at rat mGluR5 receptor is under 1000 nM.

In turn, `O=C(c1ccc(F)c(F)c1)N1CCCC(c2noc(-c3ccncc3)n2)C1` (centres unmarked) [Example 15, (3,4-Difluoro-phenyl)-[3-(5-pyridin-4-yl-[1,2,4]oxadiazol-3-yl)-piperidin-1-yl]-methanone] showed a melting point of 132 to 134 °C. Also, the EC50 at rat mGluR5 receptor was under 1000 nM.

With `O=C(c1ccc(F)cc1)N1CCCC(c2noc(-c3cscn3)n2)C1` (centres unmarked) [Example 8, (4-Fluoro-phenyl)-[3-(5-thiazol-4-yl-[1,2,4]oxadiazol-3-yl)-piperidin-1-yl]-methanone], the melting point was determined as 128 °C. In addition, the 50% effective concentration (EC50) on rat mGluR5 receptor fell in the range of 1000 to 10000 nM.

Compound `Cc1oncc1C(=O)N1CCCC(c2noc(-c3ccc(F)cc3)n2)C1` (centres unmarked) [Example 28, {3-[5-(4-Fluoro-phenyl)-[1,2,4]oxadiazol-3-yl]-piperidin-1-yl}-(5-methyl-isoxazol-4-yl)-methanone] registered a melting point of 105 to 107 °C. Further, on rat mGluR5 receptor, the EC50 is under 1000 nM.

`O=C(c1ccc(F)cc1)N1CCC[C@H](c2noc(-c3ccc(F)cn3)n2)C1` [Example 44, (S)-(4-fluorophenyl)-{3-[5-(5-fluoropyridin-2-yl)-[1,2,4]oxadiazol-3-yl]-piperidin-1-yl}-methanone]: the melting point was 108 to 110 °C. Further, at rat mGluR5 receptor, the EC50 was under 1000 nM.

Regarding `O=C(c1ccc(F)cc1)N1CCC[C@@H](c2noc(-c3ccc(F)cc3)n2)C1` [Example 2, (4-Fluoro-phenyl)-{(R)-3-[5-(4-fluoro-phenyl)-[1,2,4]oxadiazol-3-yl]-piperidin-1-yl}-methanone], the melting point was 120 to 123 °C. The 50% effective concentration (EC50) at rat mGluR5 receptor was 1000 to 10000 nM.

`O=C(c1ccc(F)nc1)N1CCCC(c2noc(-c3ccc(F)cc3)n2)C1` (centres unmarked) [Example 9, {3-[5-(4-Fluoro-phenyl)-[1,2,4]oxadiazol-3-yl]-piperidin-1-yl}-(6-fluoro-pyridin-3-yl)-methanone]: the melting point was 131 to 134 °C. The EC50 on rat mGluR5 receptor is under 1000 nM.

Take `O=C(c1ccc(F)c(F)c1)N1CCCC(c2noc(-c3ccc(F)cc3F)n2)C1` (centres unmarked) [Example 17, (3,4-Difluoro-phenyl)-{3-[5-(2,4-difluoro-phenyl)-[1,2,4]oxadiazol-3-yl]-piperidin-1-yl}-methanone]: the melting point turned out to be 91 °C. For the same compound, at rat mGluR5 receptor, the 50% effective concentration (EC50) was under 1000 nM.

`O=C(c1ccc(F)cc1)N1CCCC(c2noc(-c3ccccn3)n2)C1` (centres unmarked) [Example 11, (4-Fluoro-phenyl)-[3-(5-pyridin-2-yl-[1,2,4]oxadiazol-3-yl)-piperidin-1-yl]-methanone] had a melting point of 126 to 129 °C. Besides, the 50% effective concentration (EC50) on rat mGluR5 receptor is 1000 to 10000 nM.

For `O=C(c1ccc(F)nc1)N1CCCC(c2noc(-c3cscn3)n2)C1` (centres unmarked) [Example 30, (6-Fluoro-pyridin-3-yl)-[3-(5-thiazol-4-yl-[1,2,4]oxadiazol-3-yl)-piperidin-1-yl]-methanone], the melting point amounted to 90 °C. Moreover, the EC50 on rat mGluR5 receptor is over 10000 nM.

With `O=C(c1ccc(F)nc1)N1CCC[C@H](c2noc(-c3ccc(F)cc3)n2)C1` [Example 36, {(S)-3-[5-(4-Fluoro-phenyl)-[1,2,4]oxadiazol-3-yl]-piperidin-1-yl}-(6-fluoro-pyridin-3-yl)-methanone], the melting point was 103 to 104 °C. Moreover, the EC50 at rat mGluR5 receptor is under 1000 nM.

Consider `O=C(c1ccc(F)cc1F)N1CCCC(c2noc(-c3ccc(F)cc3)n2)C1` (centres unmarked) [Example 18, (2,4-Difluoro-phenyl)-{3-[5-(4-fluoro-phenyl)-[1,2,4]oxadiazol-3-yl]-piperidin-1-yl}-methanone], for which the melting point fell in the range of 137 to 139 °C. On rat mGluR5 receptor, the EC50 was under 1000 nM.

With `O=C(c1ccc(F)cc1)N1CCCC(c2noc(-c3ccncc3)n2)C1` (centres unmarked) [Example 14, (4-Fluoro-phenyl)-[3-(5-pyridin-4-yl-[1,2,4]oxadiazol-3-yl)-piperidin-1-yl]-methanone], the melting point lay in the range of 149 to 151 °C. For the same compound, on rat mGluR5 receptor, the EC50 lay in the range of 1000 to 10000 nM.

Values taken from patent US20090215822A1, “Substituted Oxadiazole Derivatives as Positive Allosteric Modulators of Metabotropic Glutamate Receptors” (NIKEM RESEARCH SRL, priority 2005, published 2009).
